The results in this text go back to article PMC9147192, “Small Molecule Arranged Thermal Proximity Coaggregation (smarTPCA)—A Novel Approach to Characterize Protein–Protein Interactions in Living Cells by Similar Isothermal Dose–Responses” (International Journal of Molecular Sciences, 2022).

In this assay the target is T1, CANX (Homo sapiens, UniProt P27824).
T1 construct: endogenous in cells; host or cells: HL-60 (ATCC CCL-240)
T1 sequence (P27824 21-592): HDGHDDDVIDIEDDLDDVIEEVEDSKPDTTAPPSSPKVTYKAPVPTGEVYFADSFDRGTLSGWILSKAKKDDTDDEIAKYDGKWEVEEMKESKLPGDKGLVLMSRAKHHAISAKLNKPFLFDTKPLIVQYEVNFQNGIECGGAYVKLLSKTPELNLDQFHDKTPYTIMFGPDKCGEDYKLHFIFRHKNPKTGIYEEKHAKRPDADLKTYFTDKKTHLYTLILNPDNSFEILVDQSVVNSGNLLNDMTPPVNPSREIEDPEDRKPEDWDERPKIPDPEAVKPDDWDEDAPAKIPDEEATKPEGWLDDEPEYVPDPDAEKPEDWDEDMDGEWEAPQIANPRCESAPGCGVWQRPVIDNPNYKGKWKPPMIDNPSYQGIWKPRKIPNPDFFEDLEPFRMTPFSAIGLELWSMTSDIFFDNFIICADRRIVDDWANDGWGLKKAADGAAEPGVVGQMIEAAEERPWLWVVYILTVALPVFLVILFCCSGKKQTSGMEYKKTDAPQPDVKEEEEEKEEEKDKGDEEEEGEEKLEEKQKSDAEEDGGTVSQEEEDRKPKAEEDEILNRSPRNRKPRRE
The assay can be described thus: TPP-CCR in living HL-60 cells. The class given is cell-based. An excerpt:
Therefore, we performed TPP with compound concentration range (TPP-CCR) experiments according to published procedures. In brief, after preparing tryptic peptides from the non-denatured protein fractions (used for immunoblotting in the previous sections) applying the SP3 method, the peptides were labeled using TMT10plex, coding for inhibitor concentration, and the samples belonging to a TMT set were combined, offline high-pH fractionated, and analyzed by MS.
HL-60 cells were expanded as described above for CETSA and TPP-TR to 1.25 million cells per milliliter. […] A number of 2.5 million cells in 2 mL of medium were added to each tube and incubated (1 h, 37 °C). After centrifugation (300 rcf, 3 min, r.t.) and removing all of the supernating culture medium, the cells were washed once with 2 mL and once with 0.5 mL PBS (r.t.) by gently resuspending the cells, followed by centrifugation (300 rcf, 3 min, r.t.) and the complete removal of the supernatants.
After transferring the cells from the 2 mL Eppendorf tubes into correspondingly labeled PCR tubes (tube strips) using 100 µL of ice-cold PBS supplemented with protease inhibitors for resuspending the cells, the samples were further processed as described above for CETSA and TPP-TR, however, by applying a single treatment temperature of 51 °C.
For each sample set comprising ten compound concentration range samples, a same volume of the cell extracts containing the fraction of soluble, non-denatured proteins, corresponding to an average of 5 µg total protein, was used for further analysis. The calculated volume was respectively transferred into PCR tubes of a tube strip and supplemented with SDS sample buffer without DTT and bromophenol blue (final concentrations: 7.5% glycerol, 3% SDS, 37.5 mM Tris/HCl pH 7.0) and ddH2O to a final volume of 10 µL, respectively. Reduction and alkylation were performed by addition of 2.5 µL 100 mM dithiothreitol (DTT; incubation: 20 min, 56 °C, 1000 rpm in an Eppendorf ThermoMixer C, covering the tubes with aluminum foil to minimize condensation in the lids) and 3.33 µL 300 mM iodoacetamide (IAA; incubation: 15 min, r.t., in the dark without shaking), as well as 2.5 µL 100 mM DTT (incubation: 15 min, r.t., without shaking; quenching of excess of IAA). […] The beads were collected and washed (3× 200 µL 80% ethanol p.a. in HPLC-MS grade water, 1 × 200 µL acetonitrile (ACN; HPLC gradient grade)) using a device for handling of magnetic particles [patent US20100200405A1]. The ACN of the last washing step was completely removed by aspiration without letting the beads dry out.
Tryptic digest was performed on-bead by resuspending (use of an ultrasound bath may be required) the beads in 20 µL 50 mM TEAB in HPLC-MS grade water containing 0.1 µg Trypsin/Lys-C mix and 16.5 h incubation at 37 °C and 1000 rpm (Eppendorf ThermoMixer C, covering the tubes with aluminum foil to minimize condensation in the lids). Tryptic fragmentation of proteins was optimized by addition of another 0.1 µg of Trypsin/Lys-C mix in 2 µL 50 mM TEAB and 4 h incubation at 37 °C and 1000 rpm. After centrifugation for about 1 min in a table top centrifuge and magnetic concentration and retention of the beads at the inner tube wall, the supernatants containing the peptides were transferred into new PCR tubes (of tube strips) and were stored at −80 °C. The beads were discarded.
Half of the peptide samples (11 µL containing about 2.5 µg peptides) were transferred into new PCR tubes (of tube strips) and allowed to equilibrate to r.t. TMT labeling reagents were reconstituted as described for the TPP-TR samples, and 1 µL each was added to the reconstituted peptides according to the following scheme and homogenized immediately by aspiration and dispensing:
Peptide separation was performed as described above for the analysis of TPP-TR samples. […]

[1] abbreviates: living HL-60 cells, […] °C, TMT-MS.

pEC50: −log10 of the molar value.

`Cc1cnc(Nc2ccc(F)cc2Cl)nc1-c1c[nH]c(C(=O)N[C@H](CO)c2cccc(Cl)c2)c1` [ERK 11e]: for the setting “TPP-CCR, living cells, CANX”, the Hill slope (as a rule, the slope factor of the fitted curve) is 0.80. Besides, under setting [1], the pEC50 (commonly the negative decadic logarithm of the EC50, by convention in mol/L) is 6.06 and the “Hill slope (CANX)” value worked out at 0.80.
